Reference: patent US9040687B2, “Process for the preparaton of novel porphyrin derivatives and their use as PDT agents and fluorescence probes” (COUNCIL OF SCIENTIFIC AND IDUSTRIAL RESEARCH, priority 2010, dated 2015)

How the values were obtained:
Assay in all cases: MTT assay, cytotoxicity by cellular proliferation
Format in all cases: cell-based
HCT 116 = conditions: Homo sapiens, cytotoxicity in the light
MCF 7 = conditions: Homo sapiens, MCF7, cytotoxicity in the light
HaCaT = conditions: Homo sapiens, cytotoxicity in the light
[1] = tested on: Breast cancer cells (MDA MB 231); conditions: Homo sapiens, cytotoxicity in the light
Procedure: [Worded in the source for another cell line; this cell line is reported under the same test.] (§1) 3, (4,5-Dimethylthiazol-2-yl)-2,5-diphenyltetrazolium bromide (MTT) assay is a standard colorimetric assay for measuring cellular proliferation (cell growth). It was used to determine cytotoxicity of the porphyrin derivatives of the general formulae 1. Human cervical oral cancer cells (SCCl31 cells) (5×10^3 cells well^−1) were added to wells of two 96 well microtiter plate. One for dark cytotoxicity and another for light cytotoxicity with 150 μL DMEM (Dulbecco's Modified Eagle Medium) with 10% serum and incubated for 24 h. Then added 3.125 to 25 μM of porphyrin derivatives of the general formulae 1 in serial dilution (stock 100 mM diluted using DPBS (Dulbecco's Phosphate Buffered Saline) for test, 0.025% DMSO (dimethyl sulphoxide) for control and incubated for 3 h and irradiated in one plate using sodium vapor lamp (70 w for 15 min) while the other plate was kept in dark. After photoirradiation, DPBS was aspirated and 150 μL DMEM with 10% serum was added to each well and incubated is for 48 h. After 48 h of incubation, removed the plates from the incubator and added 10 µL of MIT (5 mg/ml stock) to each well of the plate. […] Read the absorbance at 570 nm. Percentage growth inhibition was calculated as % Growth inhibition=(control-test)/control)×100 […]

[2] = tested on: oral cancer cells (SCC 131); conditions: Homo sapiens, SCC131, cytotoxicity in the light
Procedure: as §1

SCC 172 = conditions: SCC172, cytotoxicity in the light
Mia PaCa = conditions: Homo sapiens, MIA PaCa-2, cytotoxicity in the light
SiHa = conditions: Homo sapiens, cytotoxicity in the light
HeLa = conditions: Homo sapiens, cytotoxicity in the light

Work on `Oc1cccc(-c2c3nc(c(-c4cccc(O)c4)c4ccc([nH]4)c(-c4cccc(O)c4)c4nc(c(-c5cccc(O)c5)c5ccc2[nH]5)CC4)C=C3)c1` [FOSCAN, 5, 10, 15, 20-tetrakis (meta-hydroxyphenyl)-chlorin, reference compound] yielded an IC50 (HCT 116) of 9 µM, an IC50 (MCF 7) of 13 µM and an IC50 (HaCaT) of 8 µM. It also gave an IC50 [1] of 13.5 µM, an IC50 [2] of 16 µM and an IC50 (SCC 172) of 12.5 µM. It also gave an IC50 (Mia PaCa) of 11 µM, an IC50 (SiHa) of 22.5 µM and an IC50 (HeLa) of 22 µM.
